“And” between values parts separate entries of the source, which are not always exact repeats. Identical values can stand only once. Ends that are not written are not given here.
What was measured:
Type in all cases: cell-based, human
[1] = test system: HEK293 cells; test: Viability of adherent HEK293 cells after transfection with GFP reporter plasmid (Example 1); settings: 3 days after transfection with 50 ng GFP plasmid; RALA N:P10, PEIpro 3:1; FIG. 1
Procedure: HEK293 cells were seeded at a density of 1×10^5 cells per well on 24 well plates. 24 hrs later, cells were transfected with 50 ng of plasmid encoding a GFP reporter gene, either complexed with RALA (SEQ ID NO: 1) at N:P10 (14.5 μg of RALA is complexed per 1 μg of DNA) or using PEIpro at a 3:1 ratio. The cells were stained to assess cell viability after 3 days.

[2] = test system: HEK293-F cells; test: HEK293-F cell count and viability by flow cytometry after transfection in suspension culture (Example 5); design: viability at 24 h / viability at 48 h / viability at 72 h: concentration or dose not given beside the values
Procedure: (§1) HEK293-F cells were seeded into shake flasks with a 20 mL serum-free BalanCD medium at working volume at a cell concentration of 1×10^6/mL for lentiviral production and 2×10^6/mL for AAV production. Transfection with the plasmids for AAV1, AAV2, LV (two experimental replicates, LV1 and LV2) were carried out using PEI-Pro or RALA peptides as set out in Table 8 below.
(§2) The HEK293-F cell counts were determined using flow cytometry immediately prior to transfection, and then at 24 hrs, 48 hrs and 72 hrs post transfection.

[3] = as above; design: viability at 24 h / viability at 48 h / viability at 72 h: concentration or dose not given beside the values; settings: human, HEK293-F cells in suspension culture (shake flasks); for viability at 24 h: 24 h post-transf; for viability at 48 h: 48 h post-transf; for viability at 72 h: 72 h post-transf
Procedure: as §1, §2

[4] = AAV1 plasmids, 24 h post-transf
[5] = AAV1 plasmids, 48 h post-transf
[6] = AAV1 plasmids, 72 h post-transf
[7] = AAV2 plasmids, 24 h post-transf
[8] = AAV2 plasmids, 48 h post-transf

Q: With WEARLARALARALARHLARALARALRACEA [RALA] as the sequence, how does the “viability of adherent HEK293 cells” value [1] read?
A: Its value is “significantly greater”.

Q: And the Count [2, 4]?
A: Its Count is 3.63E+06 and 3.52E+06.

Q: And the Via % [2, 4]?
A: The Via % was 88.2%.

Q: What about the Count [2, 5] of the same sequence?
A: Its Count is 4.14E+06 and 3.39E+06.

Q: What about the Via % [2, 5] of the same sequence?
A: The Via % was 83.9%.

Q: What about the Count [2, 6] of the same sequence?
A: The Count was 5.82E+06 and 5.55E+06.

Q: And the Via % [2, 6]?
A: The Via % was 82.5%.

Q: What about the Count [2, 7] of the same sequence?
A: The Count was 3.57E+06 and 3.37E+06.

Q: And the Via % [2, 7]?
A: The Via % was 89.1%.

Q: And the Count [2, 8]?
A: Its Count is 3.81E+06 and 4.07E+06.

Q: And the Via % [2, 8]?
A: Its Via % is 84.8%.

Q: And the Via % ([2]; AAV2 plasmids, 72 h post-transf)?
A: Its Via % is 76.5%.

Q: And the Count ([2]; LV plasmids, 24 h post-transf)?
A: Its Count is 2.31E+06 and 2.05E+06.

Q: And the Via % ([2]; LV plasmids, 24 h post-transf)?
A: The Via % was 92.7%.

Q: What about the Count ([2]; LV plasmids, 48 h post-transf) of the same sequence?
A: The Count was 3.42E+06 and 2.83E+06.

Q: And the Via % ([2]; LV plasmids, 48 h post-transf)?
A: The Via % was 88.6%.

Q: And the Via % ([2]; LV plasmids, 72 h post-transf)?
A: The Via % was 89.6% and 86%.

Q: What about the viability at 24 h ([3]; AAV1 plasmids) of the same sequence?
A: Its viability at 24 h is 90%.

Q: What about the viability at 48 h ([3]; AAV1 plasmids) of the same sequence?
A: The viability at 48 h was 86.1%.

Q: And the viability at 72 h ([3]; AAV1 plasmids)?
A: Its viability at 72 h is 83.1%.

Q: And the viability at 24 h ([3]; AAV2 plasmids)?
A: Its viability at 24 h is 87.7%.

Q: What about the viability at 48 h ([3]; AAV2 plasmids) of the same sequence?
A: The viability at 48 h was 81.6%.

Q: What about the viability at 72 h ([3]; AAV2 plasmids) of the same sequence?
A: Its viability at 72 h is 76%.

Q: What about the viability at 24 h ([3]; LV plasmids) of the same sequence?
A: The viability at 24 h was 92%.

Q: What about the viability at 48 h ([3]; LV plasmids) of the same sequence?
A: The viability at 48 h was 92%.

From US20250011809A1, “VIRAL VECTOR PRODUCTION” (Cell Therapy Catapult Limited, priority 2021, published 2025)
